# Patent US20240216317A1, “COMPOSITION FOR PREVENTING, AMELIORATING OR TREATING INFLAMMATORY BOWEL DISEASE COMPRISING COMPOUND ISOLATED FROM ISODON EXCISUS AS EFFECTIVE COMPONENT” (HEALINNOLS INC., priority 2022, published 2024)
# System: occludin
# Assay: Immunofluorescence microscopy of tight junction-related protein occludin in intestinal epithelial wall model (DSS-treated Caco-2)
# Format: cell-based, human
# Settings: 3% DSS, 24 hours; Chemical formula 1 0.3, 1 or 3 μM; 5-ASA 500 μM; FIG. 3
# Procedure: Caco-2 cell line (human intestinal epithelial cell line) and RAW 264.7 cell line, which is macrophage cells derived from mouse, were cultured at 37° C., 5% CO2 conditions by using DMEM (Dulbecco's Modified Eagle Medium, #11995065, Gibco) containing 10% FBS (fetal bovine serum, #16000044, Gibco) and 1% streptomycin/penicillin (#15140122, Gibco). For culturing the cells, the medium exchange was carried out every 2 to 3 days, and, once the cells are grown to the level of 80% in cell culture dish (#353003, Falcon), they were maintained by subculture.
# The Caco-2 cells were adjusted to have density of 2×10^5 cells/ml. Suspension of the cells (0.5 ml) was aliquoted in apical side membrane phase of a transwell insert 12-well plate. To the basolateral side phase, 1.5 ml of culture medium were added. While replacing the medium with fresh one, once per 2 or 3 days, culture was continued for 21 days approximately, i.e., till to have cell division and suitable TEER (transepithelial electrical resistance) value of monolayer. […]
# Thereafter, the cells were washed 3 times with 1×PBS for 5 minutes and treated for 5 minutes with Hoechst 33342 for staining the nucleus. […] After the mounting with ProLong™ Gold Antifade reagent, it was examined by confocal fluorescence microscopy.
compound,measurement,value
"COC(=O)C[C@H](OC(=O)/C=C/c1ccc(O)c(O)c1)c1ccc(O)c(O)c1 [Compound 1, 3-[3,4-dihydroxyphenyl]acrylic acid 1-[3,4-dihydroxyphenyl]-2-methoxycarbonylethyl ester]",expression amount of occludin compared to DSS model group,statistically significantly higher
"Nc1ccc(O)c(C(=O)O)c1 [Compound 5-ASA, 5-aminosalicylic acid, reference compound]",expression amount of occludin compared to DSS model group,statistically significantly higher
